From US12692254B2, “Benzimidazole inhibitors of PAD enzymes” (BRISTOL-MYERS SQUIBB COMPANY, priority 2018, dated 2026)

molecular target: human PAD4 (hPAD4) (Homo sapiens, UniProt Q9UM07); assay: RFMS human PAD4 functional assay (rapid-fire mass spectrum); assay type: biochemical; conditions: 5 nM hPAD4 enzyme, 250 μM BAEE, 50 μM Calcium; 30 min preincubation, 90 min reaction at 37° C.
Summary of the method: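 PAD4 (10 nM) preincubated 30 min with compound (top final 50 μM), then BAEE substrate added in pH 7.5 HEPES buffer with DTT, 50 μM calcium, TPEN; 90 min at 37° C. After TCA quench, citrulline derivatized with phenyl glyoxal (4 mM final, 30 min, 37° C) and quantified by RapidFire MS against internal standard.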

Chain of human PAD4 (hPAD4) (Q9UM07 whole entry): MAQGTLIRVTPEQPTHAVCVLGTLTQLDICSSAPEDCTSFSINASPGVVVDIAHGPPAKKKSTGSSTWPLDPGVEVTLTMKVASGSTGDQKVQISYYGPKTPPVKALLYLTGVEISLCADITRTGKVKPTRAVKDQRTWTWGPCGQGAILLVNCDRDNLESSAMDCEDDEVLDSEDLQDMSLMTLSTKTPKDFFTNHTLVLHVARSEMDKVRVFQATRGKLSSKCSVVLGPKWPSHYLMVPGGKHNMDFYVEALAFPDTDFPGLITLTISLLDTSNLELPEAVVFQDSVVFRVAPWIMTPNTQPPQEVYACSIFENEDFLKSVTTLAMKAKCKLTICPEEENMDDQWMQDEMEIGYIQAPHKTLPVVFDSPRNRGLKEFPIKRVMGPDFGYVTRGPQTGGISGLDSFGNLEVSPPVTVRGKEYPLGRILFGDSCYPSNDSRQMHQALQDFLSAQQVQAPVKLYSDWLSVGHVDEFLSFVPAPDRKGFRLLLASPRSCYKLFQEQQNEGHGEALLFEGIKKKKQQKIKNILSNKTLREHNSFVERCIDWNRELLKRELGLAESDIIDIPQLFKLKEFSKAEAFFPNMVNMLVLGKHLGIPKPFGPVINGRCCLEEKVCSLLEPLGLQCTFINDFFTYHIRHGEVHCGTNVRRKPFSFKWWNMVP

| Structure (SMILES) | IC50 |
| --- | --- |
| COc1cc(C(=O)N2C[C@H]3CC[C@@H]2[C@@H]3N)cc2nc(-c3cc4cccnc4n3CC3CC3)n(C3CN(c4nccc(C(=O)O)n4)C3)c12 [Example 72, 2-(3-{5-[(1R,4R,7R)-7-amino-2-azabicyclo[2.2.1]heptane-2-carbonyl]-2-[1-(cyclopropylmethyl)-1H-pyrrolo[2,3-b]pyridin-2-yl]-7-methoxy-1H-1,3-benzodiazol-1-yl}azetidin-1-yl)pyrimidine-4-carboxylic acid] | 113 nM |
| COc1cc(C(=O)N2C[C@H](N)C[C@@H](F)C2)cc2nc(-c3cc4cccnc4n3CC3CC3)n(Cc3cnn(-c4cccc(F)n4)c3)c12 [Example 344, (3R,5R)-1-{2-[1-(cyclopropylmethyl)-1H-pyrrolo[2,3-b]pyridin-2-yl]-1-{[1-(6-fluoropyridin-2-yl)-1H-pyrazol-4-yl]methyl}-7-methoxy-1H-1,3-benzodiazole-5-carbonyl}-5-fluoropiperidin-3-amine] | 39 nM |
| COc1cc(C(=O)N2C[C@H]3CC[C@@H]2[C@@H]3N)cc2nc(-c3cc4cccnc4n3C)n(CC3CN(c4cncnc4C#N)C3)c12 [Example 78, 5-[3-({5-[(1R,4R,7R)-7-amino-2-azabicyclo[2.2.1]heptane-2-carbonyl]-7-methoxy-2-{1-methyl-1H-pyrrolo[2,3-b]pyridin-2-yl}-1H-1,3-benzodiazol-1-yl}methyl)azetidin-1-yl]pyrimidine-4-carbonitrile] | 373 nM |
| COc1cc(C(=O)N2C[C@H]3CC[C@@H]2[C@@H]3N)cc2nc(-c3cc4ccccc4n3CC3CC3)n(Cc3ccon3)c12 [Example 268, (1R,4R,7R)-2-{2-[1-(cyclopropylmethyl)-1H-indol-2-yl]-7-methoxy-1-[(1,2-oxazol-3-yl)methyl]-1H-1,3-benzodiazole-5-carbonyl}-2-azabicyclo[2.2.1]heptan-7-amine] | 114 nM |
| COc1cc(C(=O)N2CC3CCC2[C@@H]3N)cc2nc(-c3cc4cccnc4n3CC3CC3)n(Cc3cn[nH]c3)c12 (stereo partly drawn) [Example 488, (7R)-2-{2-[1-(cyclopropylmethyl)-1H-pyrrolo[2,3-b]pyridin-2-yl]-7-methoxy-1-[(1H-pyrazol-4-yl)methyl]-1H-1,3-benzodiazole-5-carbonyl}-2-azabicyclo[2.2.1]heptan-7-amine] | 55 nM |
| C#CC(=O)N1CC(Cn2c(-c3cc4cccnc4n3CC3CC3)nc3cc(C(=O)N4CC5CCC4[C@@H]5N)cc(OC)c32)C1 (stereo partly drawn) [Example 133, 1-[3-({5-[(1R,4R,7R)-7-amino-2-azabicyclo[2.2.1]heptane-2-carbonyl]-2-[1-(cyclopropylmethyl)-1H-pyrrolo[2,3-b]pyridin-2-yl]-7-methoxy-1H-1,3-benzodiazol-1-yl}methyl)azetidin-1-yl]prop-2-yl-1-one] | 165 nM |
| CNc1cc(C(=O)N2CC(Cn3c(-c4cc5ccccc5n4CC4CC4)nc4cc(C(=O)N5CC6CCC5[C@@H]6N)cc(OC)c43)C2)ccn1 (stereo partly drawn) [Example 412, (7R)-2-{2-[1-(cyclopropylmethyl)-1H-indol-2-yl]-7-methoxy-1-({1-[2-(methylamino)pyridine-4-carbonyl]azetidin-3-yl}methyl)-1H-1,3-benzodiazole-5-carbonyl}-2-azabicyclo[2.2.1]heptan-7-amine] | 18 nM |
| COc1cc(C(=O)N2CC3CCC2[C@@H]3N)cc2nc(-c3cc4ccccc4n3CC3CC3)n(Cc3cnn(-c4cncc(C#N)c4)c3)c12 (stereo partly drawn) [Example 351, 5-[4-({5-[(7R)-7-amino~2-azabicyclo[2.2.1]heptane-2-carbonyl]-2-[1-(cyclopropylmethyl)-1H-indol-2-yl]-7-methoxy-1H-1,3-benzodiazol-1-yl}methyl)-1H-pyrazol-1-yl]pyridine-3-carbonitrile] | 18 nM |
| COc1cc(C(=O)N2CC3CCC2[C@@H]3N)cc2nc(-c3cc4cccnc4n3CC3CC3)n(Cc3cnn(-c4cncnc4)c3)c12 (stereo partly drawn) [Example 408, (7R)-2-{2-[1-(cyclopropylmethyl)-1H-pyrrolo[2,3-b]pyridin-2-yl]-7-methoxy-1-{[1-(pyrimidin-5-yl)-1H-pyrazol-4-yl]methyl}-1H-1,3-benzodiazole-5-carbonyl}-2-azabicyclo[2.2.1]heptan-7-amine] | 74 nM |
| COc1cc(C(=O)N2CC3CCC2[C@@H]3N)cc2nc(-c3cc4ccccc4n3CC3CC3)n(Cc3cnn(-c4ccc(O)nc4)c3)c12 (stereo partly drawn) [Example 399, 5-[4-({5-[(7R)-7-amino-2-azabicyclo[2.2.1]heptane-2-carbonyl]-2-[1-(cyclopropylmethyl)-1H-indol-2-yl]-7-methoxy-1H-1,3-benzodiazol-1-yl}methyl)-1H-pyrazol-1-yl]pyridin-2-ol] | 57 nM |
| COc1cc(C(=O)N2CC3CCC2[C@@H]3N)cc2nc(-c3cc4ccccc4n3CC3CC3)n(CC3CN(C(=O)c4cccs4)C3)c12 (stereo partly drawn) [Example 457, (7R)-2-{2-[1-(cyclopropylmethyl)-1H-indol-2-yl]-7-methoxy-1-{[1-(thiophene-2-carbonyl)azetidin-3-yl]methyl}-1H-1,3-benzodiazole-5-carbonyl}-2-azabicyclo[2.2.1]heptan-7-amine] | 63 nM |
| COc1cc(C(=O)N2C[C@H](N)C[C@@H](F)C2)cc2nc(-c3cc4cccnc4n3CC3CC3)n(Cc3cnn(C)c3C)c12 [Example 504, (3R,5R)-1-{2-[1-(cyclopropylmethyl)-1H-pyrrolo[2,3-b]pyridin-2-yl]-l-[(1,5-dimethyl-1H-pyrazol-4-yl)methyl]-7-methoxy-1H-1,3-benzodiazole-5-carbonyl}-5-fluoropiperidin-3-amine] | 158 nM |
| COc1cc(C(=O)N2C[C@H](N)C[C@@H](F)C2)cc2nc(-c3cc4cccnc4n3CC3CC3)n(Cc3cn(C)nc3C)c12 [Example 507, (3R,5R)-1-{2-[1-(cyclopropylmethyl)-1H-pyrrolo[2,3-b]pyridin-2-yl]-1-[(1,3-dimethyl-1H-pyrazol-4-yl)methyl]-7-methoxy-1H-1,3-benzodiazole-5-carbonyl}-5-fluoropiperidin-3-amine] | 256 nM |

More lines, in order of falling IC50, values ahead:

| IC50 | Structure (SMILES) |
| --- | --- |
| 491 nM | COc1cc(C(=O)N2C[C@H]3CC[C@@H]2[C@@H]3N)cc2nc(-c3cc4ccccc4n3CC3CC3)n(CCN3CCNC3=O)c12 [Example 279, 1-(2-{5-[(1R,4R,7R)-7-amino-2-azabicyclo[2.2.1]heptane-2-carbonyl]-2-[1-(cyclopropylmethyl)-1H-indol-2-yl]-7-methoxy-benzodiazol-1-yl}ethyl)imidazolidin-2-one] |
| 301 nM | COc1cc(C(=O)N2C[C@H](N)C[C@@H](F)C2)cc2nc(-c3cc4ccccc4n3CC3CC3)n(CC3CC3)c12 [Example 480, (3R,5R)-1-[1-(cyclopropylmethyl)-2-[1-(cyclopropylmethyl)-1H-indol-2-yl]-7-methoxy-1H-1,3-benzodiazole-5-carbonyl]-5-fluoropiperidin-3-amine] |
| 184 nM | COc1cc(C(=O)N2C[C@H]3CC[C@@H]2[C@@H]3N)cc2nc(-c3cc4cccnc4n3CC3CC3)n(C3CN(S(C)(=O)=O)C3)c12 [Example 330, (1R,4R,7R)-2-{2-[1-(cyclopropylmethyl)-1H-pyrrolo[2,3-b]pyridin-2-yl]-1-(1-methanesulfonylazetidin-3-yl)-7-methoxy-1H-1,3-benzodiazole-5-carbonyl}-2-azabicyclo[2.2.1]heptan-7-amine] |
| 153 nM | COc1cc(C(=O)N2C[C@H]3CC[C@@H]2[C@@H]3N)cc2nc(-c3cc4cccnc4n3CC3CC3)n(C[C@@H]3CCN(c4ccnc(C)n4)C3)c12 [Example 216, (1R,4R,7R)-2-{2-[1-(cyclopropylmethyl)-1H-pyrrolo[2,3-b]pyridin-2-yl]-7-methoxy-1-{[(3R)-1-(2-methylpyrimidin-4-yl)pyrrolidin-3-yl]methyl}-1H-1,3-benzodiazole-5-carbonyl}-2-azabicyclo[2.2.1]heptan-7-amine] |
| 129 nM | COc1cc(C(=O)N2CC3CCC2[C@@H]3N)cc2nc(-c3cc4ccccc4n3CC3CC3)n(CC3CC(=O)N(C)C3)c12 (stereo partly drawn) [Example 473, 4-({5-[(7R)-7-amino-2-azabicyclo[2.2.1]heptane-2-carbonyl]-2-[1-(cyclopropylmethyl)-1H-indol-2-yl]-7-methoxy-1H-1,3-benzodiazol-1-yl}methyl)-1-methylpyrrolidin-2-one] |
| 73 nM | COc1cc(C(=O)N2C[C@H]3CC[C@@H]2[C@@H]3N)cc2nc(-c3cc4cccnc4n3CC3CC3)n(CC3CN(C(=O)c4ccc(Cl)nc4)C3)c12 [Example 120, (1R,4R,7R)-2-(1-{[1-(6-chloropyridine-3-carbonyl)azetidin-3-yl]methyl}-2-[1-(cyclopropylmethyl)-1H-pyrrolo[2,3-b]pyridin-2-yl]-7-methoxy-1H-1,3-benzodiazole-5-carbonyl)-2-azabicyclo[2.2.1]heptan-7-amine] |
| 43 nM | COc1cc(C(=O)N2CC3CCC2[C@@H]3N)cc2nc(-c3cc4cccnc4n3CC3CC3)n(CC3(C)CN(C(=O)c4ccccc4)C3)c12 (stereo partly drawn) [Example 444, (7R)-2-{1-[(1-benzoyl-3-methylazetidin-3-yl)methyl]-2-[1-(cyclopropylmethyl)-1H-pyrrolo[2,3-b]pyridin-2-yl]-7-methoxy-1H-1,3-benzodiazole-5-carbonyl}-2-azabicyclo[2.2.1]heptan-7-amine] |
| 41 nM | COc1cc(C(=O)N2C[C@H]3CC[C@@H]2[C@@H]3N)cc2nc(-c3cc4cccnc4n3CC3CC3)n(CC3CN(C(=O)C#Cc4ccccc4)C3)c12 [Example 109, 1-[3-({5-[(1R,4R,7R)-7-amino-2-azabicyclo[2.2.1]heptane-2-carbonyl]-2-[1-(cyclopropylmethyl)-1H-pyrrolo[2,3-b]pyridin-2-yl]-7-methoxy-1H-1,3-benzodiazol-1-yl}methyl)azetidin-1-yl]-3-phenylprop-2-yn-1-one] |
| 20 nM | COc1cc(C(=O)N2C[C@H]3CC[C@@H]2[C@@H]3N)cc2nc(-c3cc4ccccc4n3CC3CC3)n(CCC3CCS(=O)(=O)CC3)c12 [Example 245, ((1R,4R,7R)-7-amino-2-azabicyclo[2.2.1]heptan-2-yl)(2-(1-(cyclopropylmethyl)-1H-indol-2-yl)-1-(2-(1,1-dioxidotetrahydro-2H-thiopyran-4-yl)ethyl)-7-methoxy-1H-benzo[d]imidazol-5-yl)methanone] |
